Values joined by “and” are separate entries in the source; they are usually repeats but may differ in a detail not shown here. Equal values may be shown once. “Also recorded” adds a separate entry of the source. Read-outs that look alike come from different tables or passages of the source.
Assays:
SARS-CoV-2 = conditions: cited from earlier work
[1] = test system: Coronavirus 229E (ATCC VR-740); type: cell-based, human Coronavirus 229E
[2] = test system: Poliovirus type 1 (ATCC VR-192); type: cell-based
[3] = test system: Herpes simplex virus type 1; conditions: 200 ppm in water, after 5 and 60 minutes; monohydrochloride; cited from earlier work
[4] = test system: Vaccinia virus (Orthopoxvirus); conditions: monohydrochloride; cited from earlier work
[5] = test system: Bovine Parainfluenza 3 virus (ATCC VR-281); conditions: 200 ppm in water, after 5 and 60 minutes; monohydrochloride; cited from earlier work
[6] = in vivo; cited from earlier work
[7] = rats; cited from earlier work
[8] = test system: Adenovirus type 5 (ATCC VR-5); type: cell-based
[9] = test system: murine Norovirus (cepa S99 Berlin); type: cell-based

[H]/N=C(\N/C(=N/[H])NCCCCCCNC(=N)NC(=N)Nc1ccc(Cl)cc1)Nc1ccc(Cl)cc1 [chlorhexidine]
reduction in viral titres (SARS-CoV-2): < 2 log fold

L-arginine, N^α-lauroyl-ethyl ester monohydrochloride [LAE®]
effectiveness against the virus [1]: effective | reduction (maximum effects) [1]: > 4 logo | viricidal activity (reduction ≥4 log10) [1]: has viricidal activity | effectiveness against the virus [2]: not effective | viricidal activity (reduction ≥4 log10) [2]: has no viricidal activity | Reduction with 95% confidence interval after 30 minutes ([2]; monohydrochloride): 2.33±0.53 and 1.82±0.52 and 1.49±0.46 and 1.82 ± 0.52 log10 and 1.49 ± 0.46 log10 and 2.33 ± 0.53 log10 | Level of cytotoxicity (MRC-5, ref. FTMR cells): 0.5 | Level of cytotoxicity (Vero, ref. FTVE cells): 0.5 | antiviral activity, remaining virus (TCID50) [3]: No remaining virus was detected; also recorded: effective | antiviral activity, remaining virus (TCID50) [4]: No remaining virus was detected; also recorded: effective | antiviral activity, remaining virus (TCID50) [5]: No remaining virus was detected; also recorded: effective | toxicity to animals and humans [6]: completely harmless | absorption and metabolization [7]: fast absorption and metabolization

CCO [ethanol]
effect on virus infectivity (SARS-CoV-2; ethanol alone at <23%): no effect

C=O [Formaldehyde, formaldehyde, reference compound]
log10 TCID50 after 5 min [1]: 3.58 log10 TCID50 | log10 TCID50 after 15 min [1]: 2.49 log10 TCID50 | log10 TCID50 after 30 min [2]: 5.00 log10 TCID50 | log10 TCID50 after 60 min [2]: 3.07 log10 TCID50 | log10 TCID50 after 30 min [8]: 2.58 log10 TCID50 | log10 TCID50 after 60 min [8]: 1.33 log10 TCID50 | log10 TCID50 after 30 min [9]: 3.16 log10 TCID50 | log10 TCID50 after 60 min [9]: 1.74 log10 TCID50 | Level of cytotoxicity (MRC-5, ref. FTMR cells; human): 0.5 | Level of cytotoxicity (Vero, ref. FTVE cells; African green monkey): 0.5

Source: patent US20230151302A1, “Cationic surfactants, in particular ethyl lauroyl arginate LAE, for treating or preventing infections and contaminations with Coronavirus” (priority 2020, published 2023)
